In one experiment the target is JH2 domain of human Tyk2 (Homo sapiens (Human), UniProt P29597). In words: JH2 Biochemical Assay (TR-FRET probe displacement). Type of experiment: binding. The following applies: JH2 domain of human Tyk2, TR-FRET probe displacement. (In general: Time-resolved FRET reads energy transfer from a long-lived donor to a nearby acceptor.)
For another experiment, the target named is Tyk2 (Homo sapiens (Human), UniProt P29597). Put plainly: pSTAT4 Cell Assay (MSD, NK92 cells). In kind it is cell-based. The following applies: MSD.
Tyk2, sequence (P29597 whole entry): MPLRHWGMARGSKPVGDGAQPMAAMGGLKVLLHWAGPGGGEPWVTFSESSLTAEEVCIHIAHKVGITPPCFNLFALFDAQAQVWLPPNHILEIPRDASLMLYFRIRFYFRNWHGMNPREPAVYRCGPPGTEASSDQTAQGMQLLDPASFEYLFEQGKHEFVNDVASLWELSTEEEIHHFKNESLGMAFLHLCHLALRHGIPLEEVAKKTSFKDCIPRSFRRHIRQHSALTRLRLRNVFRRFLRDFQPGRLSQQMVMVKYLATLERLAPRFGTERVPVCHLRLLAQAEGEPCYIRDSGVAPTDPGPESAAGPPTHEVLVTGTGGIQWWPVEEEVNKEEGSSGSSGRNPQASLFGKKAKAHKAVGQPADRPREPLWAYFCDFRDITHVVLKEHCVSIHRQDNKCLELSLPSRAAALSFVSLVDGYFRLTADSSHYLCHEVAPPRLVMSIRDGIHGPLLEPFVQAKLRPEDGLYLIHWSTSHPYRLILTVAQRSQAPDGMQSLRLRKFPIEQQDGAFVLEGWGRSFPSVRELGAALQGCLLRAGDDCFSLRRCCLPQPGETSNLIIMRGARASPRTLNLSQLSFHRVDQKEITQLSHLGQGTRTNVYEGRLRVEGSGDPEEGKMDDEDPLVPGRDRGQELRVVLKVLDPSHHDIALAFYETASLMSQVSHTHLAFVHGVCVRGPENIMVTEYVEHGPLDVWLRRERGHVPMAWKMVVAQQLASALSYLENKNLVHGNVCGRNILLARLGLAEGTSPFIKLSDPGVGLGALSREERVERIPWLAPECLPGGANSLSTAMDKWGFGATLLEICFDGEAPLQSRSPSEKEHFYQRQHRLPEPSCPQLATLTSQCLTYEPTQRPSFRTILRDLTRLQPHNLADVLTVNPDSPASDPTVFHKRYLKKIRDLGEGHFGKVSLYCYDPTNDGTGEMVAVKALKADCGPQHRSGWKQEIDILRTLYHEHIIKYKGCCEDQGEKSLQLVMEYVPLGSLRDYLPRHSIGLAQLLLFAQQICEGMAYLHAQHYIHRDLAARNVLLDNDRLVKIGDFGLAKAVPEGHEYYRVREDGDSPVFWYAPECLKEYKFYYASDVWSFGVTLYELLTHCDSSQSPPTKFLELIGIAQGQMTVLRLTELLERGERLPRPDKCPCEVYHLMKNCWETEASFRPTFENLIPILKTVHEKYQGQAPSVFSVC

JH2 domain of human Tyk2, sequence (P29597 575-876): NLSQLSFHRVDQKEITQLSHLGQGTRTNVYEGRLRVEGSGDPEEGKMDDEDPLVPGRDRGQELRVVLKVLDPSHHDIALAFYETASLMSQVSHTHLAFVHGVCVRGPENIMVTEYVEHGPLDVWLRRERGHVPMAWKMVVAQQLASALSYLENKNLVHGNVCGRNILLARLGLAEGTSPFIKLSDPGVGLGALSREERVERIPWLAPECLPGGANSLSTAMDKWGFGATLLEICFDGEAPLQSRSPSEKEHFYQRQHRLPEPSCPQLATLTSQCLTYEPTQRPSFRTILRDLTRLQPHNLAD

`CO[C@H]1C[C@@H](Oc2cnc(NC(C)=O)cc2Nc2cc(C(C)C)nc(C(C)(F)F)n2)C1` [Example 409, N-(4-((2-(1,1-difluoroethyl)-6-isopropylpyrimidin-4-yl)amino)-5-((1s,3s)-3-methoxycyclobutoxy)pyridin-2-yl)acetamide]: the values for the IC50 on JH2 domain of human Tyk2 and on Tyk2 were ≤ 10 nM and 10 to 100 nM, respectively.
For `CC(=O)Nc1cc(Nc2cc(C(C)C)nc(C(C)(F)F)n2)c(O[C@H]2C[C@H](F)C2)cn1` [Example 410, N-(4-((2-(1,1-difluoroethyl)-6-isopropylpyrimidin-4-yl)amino)-5-((1r,3r)-3-fluorocyclobutoxy)pyridin-2-yl)acetamide], in that order: ≤ 10 nM and ≤ 10 nM.
On to `CC(=O)Nc1cc(Nc2cc(C(C)C)nc(C(C)(F)F)n2)c(O[C@H]2C[C@@H](F)C2)cn1` [Example 411, N-(4-((2-(1,1-difluoroethyl)-6-isopropylpyrimidin-4-yl)amino)-5-((1s,3s)-3-fluorocyclobutoxy)pyridin-2-yl)acetamide], for which the half-inhibitory concentration (IC50) at JH2 domain of human Tyk2 is ≤ 10 nM; at Tyk2, 10 to 100 nM.
As to `CC(=O)Nc1cc(Nc2cc(C)nc(C(C)(F)F)n2)c(O[C@H]2C[C@@H](F)C2)cn1` [Example 412, N-(4-((2-(1,1-difluoroethyl)-6-methylpyrimidin-4-yl)amino)-5-((1s,3s)-3-fluorocyclobutoxy)pyridin-2-yl)acetamide], the half-inhibitory concentration (IC50) on JH2 domain of human Tyk2 is ≤ 10 nM; on Tyk2, 10 to 100 nM.
For `CCc1cc(Nc2cc(NC(C)=O)ncc2O[C@H]2C[C@@H](F)C2)nc(C(C)(F)F)n1` [Example 413, N-(4-((2-(1,1-difluoroethyl)-6-ethylpyrimidin-4-yl)amino)-5-((1s,3s)-3-fluorocyclobutoxy)pyridin-2-yl)acetamide], in that order: ≤ 10 nM and ≤ 10 nM.
On to `CC(=O)Nc1cc(Nc2cc(-c3cnn(C(C)C)c3)nc(C(C)(F)F)n2)c(O[C@H]2C[C@@H](F)C2)cn1` [Example 414, N-(4-((2-(1,1-difluoroethyl)-6-(1-isopropyl-1H-pyrazol-4-yl)pyrimidin-4-yl)amino)-5-((1s,3s)-3-fluorocyclobutoxy)pyridin-2-yl)acetamide], for which the concentration for half-maximal inhibition (IC50) on JH2 domain of human Tyk2 and at Tyk2 was ≤ 10 nM each time.
Turning to `[2H]C([2H])([2H])Oc1cnc(NC(C)=O)cc1Nc1cc(OC2CC2)nc(C(C)(F)F)n1` [Example 415, N-(4-((6-cyclopropoxy-2-(1,1-difluoroethyl)pyrimidin-4-yl)amino)-5-(methoxy-d3)pyridin-2-yl)acetamide], the half-inhibitory concentration (IC50) on JH2 domain of human Tyk2 and on Tyk2 was ≤ 10 nM each time.
Turning to `COc1cnc(NC(C)=O)cc1Nc1cc(-c2cn[nH]c2)nc(C(C)(F)F)n1` [Example 416, N-(4-((2-(1,1-difluoroethyl)-6-(1H-pyrazol-4-yl)pyrimidin-4-yl)amino)-5-methoxypyridin-2-yl)acetamide], the IC50 at JH2 domain of human Tyk2 is ≤ 10 nM; against Tyk2 it was 100 to 1000 nM.
For `CC(=O)Nc1cc(Nc2cc(C)nc(C(C)(F)F)n2)c(OCC2(F)CCCOC2)cn1` (centres unmarked) [Example 417, N-(4-((2-(1,1-difluoroethyl)-6-methylpyrimidin-4-yl)amino)-5-((3-fluorotetrahydro-2H-pyran-3-yl)methoxy)pyridin-2-yl)acetamide], in that order: ≤ 10 nM and ≤ 10 nM.
For `CC(=O)Nc1cc(Nc2cc(C)nc(C(C)(F)F)n2)c(OCC2COCC(C)(C)O2)cn1` (centres unmarked) [Example 419, N-(4-((2-(1,1-difluoroethyl)-6-methylpyrimidin-4-yl)amino)-5-((6,6-dimethyl-1,4-dioxan-2-yl)methoxy)pyridin-2-yl)acetamide], in that order: ≤ 10 nM and ≤ 10 nM.
Consider `CC(=O)Nc1cc(Nc2cc(C)nc(C(C)(F)F)n2)c(OCC(F)C2CCC2)cn1` (centres unmarked) [Example 420, N-(5-(2-cyclobutyl-2-fluoroethoxy)-4-((2-(1,1-difluoroethyl)-6-methylpyrimidin-4-yl)amino)pyridin-2-yl)acetamide], for which the concentration for half-maximal inhibition (IC50) at JH2 domain of human Tyk2 was ≤ 10 nM; at Tyk2, 10 to 100 nM.
On to `CC(=O)Nc1cc(Nc2cc(C)nc(C(C)(F)F)n2)c(OC[C@]23CO[C@](CF)(C2)C3)cn1` [Example 421, N-(4-((2-(1,1-difluoroethyl)-6-methylpyrimidin-4-yl)amino)-5-(((1r,4s)-1-(fluoromethyl)-2-oxabicyclo[2.1.1]hexan-4-yl)methoxy)pyridin-2-yl)acetamide], for which the half-maximal inhibitory concentration (IC50) is ≤ 10 nM on JH2 domain of human Tyk2 and 10 to 100 nM against Tyk2.
The corresponding values for `CC(=O)Nc1cc(Nc2cc(C)nc(C(C)(F)F)n2)c(OCC2CC23CC3)cn1` (centres unmarked) [Example 422, N-(4-((2-(1,1-difluoroethyl)-6-methylpyrimidin-4-yl)amino)-5-(spiro[2.2]pentan-1-ylmethoxy)pyridin-2-yl)acetamide] are ≤ 10 nM and 10 to 100 nM.
For the compound `CC(=O)Nc1cc(Nc2cc(C)nc(C(C)(F)F)n2)c(OC[C@]23CC[C@@H](CC2)O3)cn1` [Example 423, N-(5-(((1r,4r)-7-oxabicyclo[2.2.1]heptan-1-yl)methoxy)-4-((2-(1,1-difluoroethyl)-6-methylpyrimidin-4-yl)amino)pyridin-2-yl)acetamide], the results for the IC50 at JH2 domain of human Tyk2 and against Tyk2 were ≤ 10 nM and 10 to 100 nM, respectively.
With `CCC(COc1cnc(NC(C)=O)cc1Nc1cc(C)nc(C(C)(F)F)n1)OC` (centres unmarked) [Example 424, N-(4-((2-(1,1-difluoroethyl)-6-methylpyrimidin-4-yl)amino)-5-(2-methoxybutoxy)pyridin-2-yl)acetamide], the IC50 on JH2 domain of human Tyk2 is ≤ 10 nM; against Tyk2 it was 10 to 100 nM.
`CC(=O)Nc1cc(Nc2cc(C)nc(C(C)(F)F)n2)c(OCC(C)OC(C)(C)C)cn1` (centres unmarked) [Example 427, N-(5-(2-(tert-butoxy)propoxy)-4-((2-(1,1-difluoroethyl)-6-methylpyrimidin-4-yl)amino)pyridin-2-yl)acetamide]: the IC50 at JH2 domain of human Tyk2 is ≤ 10 nM; at Tyk2, 10 to 100 nM.
For `CC(=O)Nc1cc(Nc2cc(C)nc(C(C)(F)F)n2)c(OCC(F)C(C)C)cn1` (centres unmarked) [Example 429, N-(4-((2-(1,1-difluoroethyl)-6-methylpyrimidin-4-yl)amino)-5-(2-fluoro-3-methylbutoxy)pyridin-2-yl)acetamide], in that order: ≤ 10 nM and 10 to 100 nM.
With `CC(=O)Nc1cc(Nc2cc(C)nc(C(C)(F)F)n2)c(OCC2(C)CCOC2)cn1` (centres unmarked) [Example 431, N-(4-((2-(1,1-difluoroethyl)-6-methylpyrimidin-4-yl)amino)-5-((3-methyltetrahydrofuran-3-yl)methoxy)pyridin-2-yl)acetamide], the IC50 on JH2 domain of human Tyk2 is ≤ 10 nM; on Tyk2 it was 100 to 1000 nM.
The corresponding values for `CC(=O)Nc1cc(Nc2cc(C)nc(C(C)(F)F)n2)c(OCC2CC23CCOC3)cn1` (centres unmarked) [Example 432, N-(5-((5-oxaspiro[2.4]heptan-1-yl)methoxy)-4-((2-(1,1-difluoroethyl)-6-methylpyrimidin-4-yl)amino)pyridin-2-yl)acetamide] are ≤ 10 nM and 10 to 100 nM.
As for `CC(=O)Nc1cc(Nc2cc(C)nc(C(C)(F)F)n2)c(OCC2CC3(CCC3)CO2)cn1` (centres unmarked) [Example 433, N-(5-((6-oxaspiro[3.4]octan-7-yl)methoxy)-4-((2-(1,1-difluoroethyl)-6-methylpyrimidin-4-yl)amino)pyridin-2-yl)acetamide], the IC50 at JH2 domain of human Tyk2 and against Tyk2 was ≤ 10 nM throughout.
For `CC(=O)Nc1cc(Nc2cc(C)nc(C(C)(F)F)n2)c(OCCCC2CCCO2)cn1` (centres unmarked) [Example 434, N-(4-((2-(1,1-difluoroethyl)-6-methylpyrimidin-4-yl)amino)-5-(3-(tetrahydrofuran-2-yl)propoxy)pyridin-2-yl)acetamide], the values for the half-inhibitory concentration (IC50) at JH2 domain of human Tyk2 and at Tyk2 were ≤ 10 nM and 10 to 100 nM, respectively.
As to `COc1cnc(NC(C)=O)cc1Nc1nc(C)cc(C(F)(F)F)n1` [Example 436, N-(5-methoxy-4-((4-methyl-6-(trifluoromethyl)pyrimidin-2-yl)amino)pyridin-2-yl)acetamide], the half-maximal inhibitory concentration (IC50) on JH2 domain of human Tyk2 is 100 to 1000 nM; against Tyk2, ≥ 1000 nM.
As for `COCCOc1cnc(NC(C)=O)cc1Nc1cncc(C(C)(C)F)n1` [Example 439, N-(4-((6-(2-fluoropropan-2-yl)pyrazin-2-yl)amino)-5-(2-methoxyethoxy)pyridin-2-yl)acetamide], the concentration for half-maximal inhibition (IC50) is ≤ 10 nM at JH2 domain of human Tyk2 and 10 to 100 nM against Tyk2.
For `COCC(C)COc1cnc(NC(C)=O)cc1Nc1cc(C)nc(C(C)(F)F)n1` (centres unmarked) [Example 440, N-(4-((2-(1,1-difluoroethyl)-6-methylpyrimidin-4-yl)amino)-5-(3-methoxy-2-methylpropoxy)pyridin-2-yl)acetamide], in that order: ≤ 10 nM and 10 to 100 nM.
Consider `COCCOc1cnc(NC(C)=O)cc1Nc1nc(C)cc(C(C)(C)F)n1` [Example 441, N-(4-((4-(2-fluoropropan-2-yl)-6-methylpyrimidin-2-yl)amino)-5-(2-methoxyethoxy)pyridin-2-yl)acetamide], for which the 50% inhibitory concentration (IC50) at JH2 domain of human Tyk2 was ≤ 10 nM; on Tyk2, 100 to 1000 nM.
The corresponding values for `CC(=O)Nc1cc(Nc2cc(C)nc(C(C)(F)F)n2)c(OCC2COCC3(CCC3)O2)cn1` (centres unmarked) [Example 443, N-(5-((5,8-dioxaspiro[3.5]nonan-6-yl)methoxy)-4-((2-(1,1-difluoroethyl)-6-methylpyrimidin-4-yl)amino)pyridin-2-yl)acetamide] are ≤ 10 nM and 10 to 100 nM.
The corresponding values for `CC(=O)Nc1cc(Nc2cc(C)nc(C(C)(F)F)n2)c(OCCC(C)F)cn1` (centres unmarked) [Example 444, N-(4-((2-(1,1-difluoroethyl)-6-methylpyrimidin-4-yl)amino)-5-(3-fluorobutoxy)pyridin-2-yl)acetamide] are ≤ 10 nM and 10 to 100 nM.
Turning to `COC(=O)Nc1cc(Nc2cc(OC3CC3)nc(C(C)(F)F)n2)c(OCCN(C)C)cn1` [Example 447, methyl (4-((6-cyclopropoxy-2-(1,1-difluoroethyl)pyrimidin-4-yl)amino)-5-(2-(dimethylamino)ethoxy)pyridin-2-yl)carbamate], the IC50 is ≤ 10 nM at JH2 domain of human Tyk2 and 10 to 100 nM against Tyk2.

As usually defined, the IC50 is the concentration that inhibits the measured activity by half.
